Experimental findings from US11013235B2 (priority 2015, dated 2021) are described below.

SMILES strings stand for the structures. Where two headings read alike, the source gives them in different places.

What all share (assay type): in vivo
The subject of one assay is Alternaria solani. Briefly: Control of Alternaria solani disease in tomato (As-SI). Conditions: 1 μM spraying every 24 hours for one week, water control 68. In a few lines: (§1)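 Treatment: spraying at 1 μM every 24 h for 1 week after pathogen inoculation, versus water. Scoring differed by pathogen: Botrytis by lesion diameter, Alternaria by fraction of leaves with symptoms, Nocardia by plant mortality.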

The subject of assay [1] is Rhizoctonia solani. Nature of the assay: Control of Rhizoctonia solani disease in tobacco (Rs-Nt). Conditions: 1 μM spraying every 24 hours for one week, water control 87.
Assay [2] concerns Botrytis cinerea. Briefly: Control of Botrytis cinerea disease in tobacco (Bc-Nt). Conditions: 1 μM spraying every 24 hours for one week, water control 6.7. In a few lines: as §1
In assay [3] the test system is Candidatus 'Liberibacter asiaticus'. Conditions: spraying every 15 days, 12 months after treatment, Citrus sinensis with HLB.
For a further assay, the system named is Radopholus similis. Nature of the assay: Nematode control, nodules per plant: Radopholus similis. Conditions: 1 μM foliar application every 5 days, evaluation 35 days after, control 45. In a few lines:
(§2)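 Read-out: nodule count per plant at final evaluation 35 days after start. Foliar spray of 1 μM compound (ethanol stock diluted in water) repeated every 5 days, ten plants per treatment.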

Another assay relates to Pratylenchus coffeae. Briefly: Nematode control, nodules per plant: Pratylenchus coffeae. Conditions: 1 μM foliar application every 5 days, evaluation 35 days after, control 42. In a few lines:
as §2

Assay [4] relates to Rhizoctonia solani. Briefly: Control of Rhizoctonia solani disease in tomato (Rs-SI). Conditions: 1 μM spraying every 24 hours for one week, water control 96.
For a further assay, the system named is Phytophthora parasitica. Nature of the assay: Control of Phytophthora parasitica disease in tobacco (Pp-Nt). Conditions: 1 μM spraying every 24 hours for one week, water control 91.
The subject of another assay is Nocardia sp. Briefly: Control of Nocardia sp disease in tobacco (N-Nt). Conditions: 1 μM spraying every 24 hours for one week, water control 58. In a few lines: as §1
The test system of another assay is Meloidogyne incognita. Nature of the assay: Nematode control, nodules per plant: Meloidogyne incognita. Conditions: 1 μM foliar application every 5 days, evaluation 35 days after, control 34. In a few lines:
as §2

In assay [5] the test system is Botrytis cinerea. Nature of the assay: Control of Botrytis cinerea disease in tomato (Bc-SI). Conditions: 1 μM spraying every 24 hours for one week, water control 7.4. The method, boiled down: as §1
Assay [6] relates to Botrytis cinerea. Briefly: Control of Botrytis cinerea disease in Arabidopsis (Bc-At). Conditions: 1 μM spraying every 24 hours for one week, water control 8.7. In a few lines:
as §1

For `Cc1c(CCC(=O)NCC(O)CO)c(=O)oc2cc3occ(-n4cccc4)c3cc12` (stereo not shown) [IN, N-(2,3-dihydroxypropyl)-3-[4-methyl-2-oxo-6-(1H-pyrrol-1-yl)-2H-furo[3,2-g]chromen-3-yl]propanamide], in the assay on Alternaria solani, the “As-SI: percentage of leaves with the disease symptoms” value (from here on “As-SI: percentage of leaves”) is 7%. Further, the “Rs-Nt: percentage of mortality” value in the assay on Rhizoctonia solani [1] is recorded as 0%. For the same compound, the “Bc-Nt: mean of the diameter of the lesion” value (“Bc-Nt: mean” below) in the assay with Botrytis cinerea [2] was 2.0 mm. In addition, the “Titers of the bacterium” value in assay [3] (0.001 μM) was 524 copies per reaction; in assay [3] (0.01 μM), 0 copies per reaction; in assay [3] (1 μM) it was 0 copies per reaction; in assay [3] (5 μM) it was 54 copies per reaction; in assay [3] (10 μM), 2368 copies per reaction. Further, the “Rs: number of nodules per plant” value in the assay on Radopholus similis came out at 3. Moreover, the “Pc: number of nodules per plant” value with Pratylenchus coffeae worked out at 0. Moreover, in the assay with Rhizoctonia solani [4], the “Rs-SI: percentage of mortality” value was determined as 1%. Besides, the “Pp-Nt: percentage of mortality” value in the assay on Phytophthora parasitica amounted to 3%. The “N-Nt: percentage of mortality” value in the assay on Nocardia sp is given as 0%. For the same compound, the “Mi: number of nodules per plant” value with Meloidogyne incognita was determined as 0. The “Bc-SI: mean of the diameter of the lesion” value (shortened to “Bc-SI: mean”) with Botrytis cinerea [5] is listed as 1.6 mm. For the same compound, the “Bc-At: mean of the diameter of the lesion” value (“Bc-At: mean” for short) with Botrytis cinerea [6] came out at 1.1 mm.
In the case of `O=C(c1cnc(N2CCN(C3CCCCC3)CC2)nc1)N1CC2CC(O)C(O)CC2C1` (stereo not shown) [IIIE, 2-{[2-(4-cyclohexylpiperazin-1-yl)pyrimidin-5-yl]carbonyl}-octahydro-1H-isoindole-5,6-diol], the “As-SI: percentage of leaves” value in the assay on Alternaria solani was determined as 7%. In addition, the “Rs-Nt: percentage of mortality” value in the assay on Rhizoctonia solani [1] was found to be 0%. The “Bc-Nt: mean” value in the assay on Botrytis cinerea [2] was 0.9 mm. In addition, the “Titers of the bacterium” value in assay [3] (0.001 μM) amounted to 657 copies per reaction; in assay [3] (0.01 μM), 7 copies per reaction; in assay [3] (1 μM) it was 0 copies per reaction; in assay [3] (5 μM), 67 copies per reaction; in assay [3] (10 μM), 8653 copies per reaction. For the same compound, the “Rs: number of nodules per plant” value in the assay with Radopholus similis stood at 0. Besides, in the assay with Pratylenchus coffeae, the “Pc: number of nodules per plant” value came out at 0. Further, the “Rs-SI: percentage of mortality” value in the assay with Rhizoctonia solani [4] is 0%. The “Pp-Nt: percentage of mortality” value in the assay on Phytophthora parasitica is recorded as 0%. Further, the “N-Nt: percentage of mortality” value in the assay with Nocardia sp was 0%. The “Mi: number of nodules per plant” value in the assay with Meloidogyne incognita was found to be 0. In addition, the “Bc-SI: mean” value in the assay with Botrytis cinerea [5] worked out at 0.8 mm. The “Bc-At: mean” value with Botrytis cinerea [6] is recorded as 0.5 mm.
With `O=C(CC1COc2ccc(C(=O)NC3CCCC3)cc2N1)NC(CO)CO` (stereo not shown) [VG, N-cyclopentyl-3-{[(1,3-dihydroxypropan-2-yl)carbamoyl]methyl}-3,4-dihydro-2H-1,4-benzoxazine-6-carboxamide], in the assay on Alternaria solani, the “As-SI: percentage of leaves” value is on record as 1%. In addition, in the assay with Rhizoctonia solani [1], the “Rs-Nt: percentage of mortality” value stood at 2%. In addition, the “Bc-Nt: mean” value in the assay with Botrytis cinerea [2] turned out to be 1.5 mm. The “Titers of the bacterium” value in assay [3] (0.001 μM) is listed as 657 copies per reaction; in [3] (0.01 μM), 8 copies per reaction; in [3] (1 μM) it was 0 copies per reaction; in [3] (5 μM) it was 67 copies per reaction; in assay [3] (10 μM), 3654 copies per reaction. Further, in the assay with Radopholus similis, the “Rs: number of nodules per plant” value amounted to 1. Also, in the assay with Pratylenchus coffeae, the “Pc: number of nodules per plant” value was found to be 1. Further, the “Rs-SI: percentage of mortality” value in the assay with Rhizoctonia solani [4] stood at 3%. Also, the “Pp-Nt: percentage of mortality” value with Phytophthora parasitica was found to be 1%. For the same compound, the “N-Nt: percentage of mortality” value in the assay with Nocardia sp was found to be 1%. For the same compound, the “Mi: number of nodules per plant” value in the assay with Meloidogyne incognita stood at 2. Also, the “Bc-SI: mean” value in the assay on Botrytis cinerea [5] is given as 0.8 mm. Further, the “Bc-At: mean” value with Botrytis cinerea [6] is 2.4 mm.
Consider `CC(O)C(O)CN1CCC(Oc2ccc(C(=O)N3CCC(C4CCCC4)C3)cc2)CC1` (stereo not shown) [IVH, 1-(4-{4-[(3-cyclopentylpyrrolidin-1-yl)carbonyl]phenoxy}piperidin-1-yl)butane-2,3-diol], for which, in the assay with Alternaria solani, the “As-SI: percentage of leaves” value is listed as 5%. In addition, the “Rs-Nt: percentage of mortality” value in the assay on Rhizoctonia solani [1] stood at 0%. In addition, the “Bc-Nt: mean” value with Botrytis cinerea [2] came out at 0.9 mm. For the same compound, the “Titers of the bacterium” value was 756 copies per reaction in assay [3] (0.001 μM); 0 copies per reaction in [3] (0.01 μM); 0 copies per reaction in [3] (1 μM); 76 copies per reaction in assay [3] (5 μM); 1351 copies per reaction in [3] (10 μM). The “Rs: number of nodules per plant” value with Radopholus similis is 0. Moreover, the “Pc: number of nodules per plant” value in the assay with Pratylenchus coffeae is 0. In addition, in the assay with Rhizoctonia solani [4], the “Rs-SI: percentage of mortality” value was determined as 1%. In the assay on Phytophthora parasitica, the “Pp-Nt: percentage of mortality” value was 0%. In addition, the “N-Nt: percentage of mortality” value with Nocardia sp worked out at 0%. Further, the “Mi: number of nodules per plant” value in the assay on Meloidogyne incognita was 0. The “Bc-SI: mean” value in the assay on Botrytis cinerea [5] turned out to be 1.2 mm. Also, in the assay on Botrytis cinerea [6], the “Bc-At: mean” value came to 0.7 mm.
With `O=C(Cc1cc2c(oc1=O)C=CC1C(C3CCCCC3)=COC21)NCC(O)CO` (stereo not shown) [IIC, 2-{5-cyclohexyl-11-oxo-3,10-dioxatricyclo[7.4.0.0^{2,6}]trideca-1(9),4,7,12-tetraen-12-yl}-N-(2,3-dihydroxypropyl)acetamide], in the assay on Alternaria solani, the “As-SI: percentage of leaves” value came out at 3%. Further, the “Rs-Nt: percentage of mortality” value in the assay on Rhizoctonia solani [1] was 4%. Besides, the “Bc-Nt: mean” value with Botrytis cinerea [2] is recorded as 1.5 mm. Moreover, the “Titers of the bacterium” value in assay [3] (0.001 μM) is given as 123 copies per reaction; in assay [3] (0.01 μM) it was 25 copies per reaction; in [3] (1 μM), 2 copies per reaction; in [3] (5 μM) it was 23 copies per reaction; in assay [3] (10 μM), 4562 copies per reaction. For the same compound, in the assay with Radopholus similis, the “Rs: number of nodules per plant” value is on record as 18. For the same compound, in the assay with Pratylenchus coffeae, the “Pc: number of nodules per plant” value is 2. In addition, the “Rs-SI: percentage of mortality” value with Rhizoctonia solani [4] was found to be 2%. Besides, the “Pp-Nt: percentage of mortality” value in the assay with Phytophthora parasitica was found to be 1%. Moreover, the “N-Nt: percentage of mortality” value in the assay with Nocardia sp turned out to be 2%. Besides, in the assay with Meloidogyne incognita, the “Mi: number of nodules per plant” value came out at 4. Moreover, the “Bc-SI: mean” value in the assay on Botrytis cinerea [5] came to 0.8 mm. In the assay on Botrytis cinerea [6], the “Bc-At: mean” value was 2.4 mm.
`Cc1c(CCC(=O)NCC(O)CO)c(=O)oc2cc3occc3cc12` (stereo not shown) [IM, N-(2,3-dihydroxypropyl)-3-{4-methyl-2-oxo-2H-furo[3,2-g]chromen-3-yl}propanamide]: the “As-SI: percentage of leaves” value in the assay with Alternaria solani is on record as 5%. Moreover, the “Rs-Nt: percentage of mortality” value with Rhizoctonia solani [1] is 0%. Besides, the “Bc-Nt: mean” value with Botrytis cinerea [2] is 0.3 mm. Besides, the “Titers of the bacterium” value in assay [3] (0.001 μM) came out at 635 copies per reaction; in assay [3] (0.01 μM) it was 0 copies per reaction; in assay [3] (1 μM), 0 copies per reaction; in [3] (5 μM), 65 copies per reaction; in assay [3] (10 μM), 3541 copies per reaction. In the assay on Radopholus similis, the “Rs: number of nodules per plant” value came to 0. The “Pc: number of nodules per plant” value in the assay on Pratylenchus coffeae amounted to 0. The “Rs-SI: percentage of mortality” value in the assay with Rhizoctonia solani [4] was found to be 1%. Besides, the “Pp-Nt: percentage of mortality” value in the assay on Phytophthora parasitica was found to be 0%. In addition, the “N-Nt: percentage of mortality” value in the assay with Nocardia sp was 0%. The “Mi: number of nodules per plant” value in the assay on Meloidogyne incognita worked out at 0. Also, the “Bc-SI: mean” value in the assay on Botrytis cinerea [5] is 0.8 mm. In addition, the “Bc-At: mean” value with Botrytis cinerea [6] is 1.2 mm.
On to `Cc1nc(N2CCN(C)CC2)ncc1C(=O)N1CC2CC(O)C(O)CC2C1` (stereo not shown) [IIIB, 2-{[4-methyl-2-(4-methylpiperazin-1-yl)pyrimidin-5-yl]carbonyl}-octahydro-1H-isoindole-5,6-diol], for which the “As-SI: percentage of leaves” value with Alternaria solani is recorded as 2%. The “Rs-Nt: percentage of mortality” value in the assay on Rhizoctonia solani [1] came to 3%. For the same compound, the “Bc-Nt: mean” value with Botrytis cinerea [2] is given as 0.9 mm. Further, the “Titers of the bacterium” value in assay [3] (0.001 μM) was found to be 123 copies per reaction; in assay [3] (0.01 μM), 0 copies per reaction; in [3] (1 μM), 0 copies per reaction; in assay [3] (5 μM), 23 copies per reaction; in [3] (10 μM) it was 8546 copies per reaction. The “Rs: number of nodules per plant” value with Radopholus similis stood at 2. In addition, the “Pc: number of nodules per plant” value in the assay with Pratylenchus coffeae is 16. In addition, the “Rs-SI: percentage of mortality” value in the assay with Rhizoctonia solani [4] turned out to be 2%. Besides, the “Pp-Nt: percentage of mortality” value with Phytophthora parasitica came out at 2%. For the same compound, the “N-Nt: percentage of mortality” value in the assay with Nocardia sp was determined as 1%. In the assay with Meloidogyne incognita, the “Mi: number of nodules per plant” value was determined as 3. Besides, in the assay on Botrytis cinerea [5], the “Bc-SI: mean” value is reported as 1.2 mm. Besides, in the assay with Botrytis cinerea [6], the “Bc-At: mean” value is 0.7 mm.
